ChEMBL document CHEMBL3286211, “Pyrimidinylpiperdinyloxypyridone Analogues as GPR119 Modulators” (ACS Med Chem Lett, 2014)

Assays:
[1] = Half life in human liver microsomes at 50 uM preincubated for 5 mins followed by NADPH addition by LC/MS-MS analysis; type: ADME
[2] = Agonist activity at human-mouse chimeric GPR119 expressed in tetracycline-induced Flp-In-T-Rex-HEK293 cells assessed as accumulation of cAMP after 50 mins by HTRF assay; type: cell-based; settings: HEK293, 50 min
Mus musculus [3] = test: Antidiabetic activity in C57BL/6J mouse assessed as reduction in plasma glucose level at 0.1 mg/kg, po administered for 60 mins followed by glucose challenge measured for 30 to 120 mins by OGTT relative to vehicle-treated control; type: functional; parameters: scale not given: the % may be the effect or the level left
Mus musculus [4] = test: Antidiabetic activity in C57BL/6J mouse assessed as reduction in plasma glucose level at 0.03 mg/kg, po administered for 60 mins followed by glucose challenge measured for 30 to 120 mins by OGTT relative to vehicle-treated control; type: functional; parameters: scale not given: the % may be the effect or the level left

Row | SMILES | half-life at 50 µM [1] [h] | EC50 [2] [nM] | Activity (Mus musculus [3]) [%] | Activity (Mus musculus [4]) [%]
1 | CCCc1cnc(N2CCC(Oc3ccn(-c4ccc(N5CCC(O)C5=O)c(C)n4)c(=O)c3)CC2)nc1 (configuration not stated) | 1.27 | 16 | 21 | –
2 | Cc1nc(-n2ccc(OC3CCN(c4ncc(Cl)cn4)CC3)cc2=O)ccc1N1CCC(O)C1=O (configuration not stated) | 1.68 | 10 | – | –

Molecules with a lower EC50 [2], results first:

Row | half-life at 50 µM [1] [h] | EC50 [2] [nM] | SMILES | Activity (Mus musculus [3]) [%] | Activity (Mus musculus [4]) [%]
3 | 1.57 | 2 | Cc1nc(-n2cc(Cl)c(OC3CCN(c4ncc(Cl)cn4)CC3)cc2=O)ccc1N1CCC(O)C1=O (configuration not stated) | – | 36
4 | 1.62 | 3 | Cc1nc(-n2cc(Cl)c(OC3CCN(c4ncc(Cl)cn4)CC3)cc2=O)ccc1N1CC[C@@H](O)C1=O | – | 39
5 | 1.3 | 4 | Cc1nc(-n2cc(Cl)c(OC3CCN(c4ncc(Cl)cn4)CC3)cc2=O)ccc1N1CC[C@H](O)C1=O | – | 26
6 | 2 | 4 | CCCc1cnc(N2CCC(Oc3cc(=O)n(-c4ccc(N5CCC(O)C5=O)c(C)n4)cc3Cl)CC2)nc1 (configuration not stated) | – | 19
